Our source for the EC50 values is patent publication US8445690B2, “Aminothiazolones as estrogen related receptor-alpha modulators” (Janssen Pharmaceutica NV, priority 2010, dated 2013).

The target in the assay is T1, ERR1 (also known as ERR-α or ERR-1) (Homo sapiens, UniProt P11474).
T1 sequence (P11474 193-421 limits assumed): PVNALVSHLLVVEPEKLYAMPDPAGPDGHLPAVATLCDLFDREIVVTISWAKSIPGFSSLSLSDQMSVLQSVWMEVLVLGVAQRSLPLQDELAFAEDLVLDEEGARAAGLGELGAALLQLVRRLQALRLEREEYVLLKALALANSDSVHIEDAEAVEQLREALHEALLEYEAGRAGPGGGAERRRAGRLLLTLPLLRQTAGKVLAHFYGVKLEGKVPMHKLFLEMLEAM
Briefly: TR-FRET assay: disruption of co-activator peptide (GST-hSRC2) binding to 6His-tagged ERR1 LBD. The assay is classed as biochemical. Conditions: 6 nM ERR1LBD, 6 nM GST-SRC-2 peptide, 25° C., 4-18 hours; average of 3 independent experiments. How it is done:
Time-Resolved Fluorescence Resonance Energy Transfer (TR-FRET) experiments were performed to examine the functional response of ERR1 (also known as ERR-α or ERR-1) ligands. The TR-FRET assay described herein relied on the conformation of ERR1 for binding to a co-activator peptide: when a test compound binds to ERR1 and alters its conformation, it can disrupt the binding of the co-activator peptide. The components of this homogeneous secondary assay included: the ^6His-tagged-ERR1LBD, a GST-labeled-hSRC2 co-activator polypeptide and a fluorescent donor/acceptor pair from CIS bio international htrf/bioassays (Bedford, Mass.) using both an α-GST Europium Cryptate (Eu) label and an α^6His-XL665 (allophycocyanin) fluorophore.
For TR-FRET measurements, the reaction was buffered in 25 mM Tris pH 8, 2.5 mM Hepes, 20 mM KCl, 1 mM DTT, and 0.05 mg/mL BSA (-lipids). The final concentrations of reagents were 6 nM of ERR1LBD, 6 nM GST-SRC-2 peptide, 30 nM Eu cryptate, and 7.5 nM XL665. Reactions were allowed to reach equilibrium at 25° C. for 4-18 hours before collecting data on the Analyst from LJL Biosystems (Molecular Devices Sunnyvale, Calif.). As a time-resolved method, the samples were excited at […] and emission was collected for 1 ms at both 615 and 665 nm with delays of 400 and 75 μs, respectively. Dose response curves were fitted using a hyperbolic equation and the data reported is the average of 3 independent experiments.
Compounds listed in Tables II below were tested in the above assay, and they are all active modulators of ERR1.
Background: TR-FRET usually uses a lanthanide donor and a delayed reading to cut background.

For orientation: EC50 means the midpoint of the concentration-response curve. A higher EC50 goes with a less potent agent. The compound `O=C1N=C(N[C@@H]2CN3CCC2CC3)S/C1=C\c1ccc2c(cnn2Cc2ccc(Cl)cc2C(F)(F)F)c1` [Compound 27, 2-(1-Aza-bicyclo[2.2.2]oct-3(S)-ylamino)-5-[1-(4-chloro-2-trifluoromethyl-benzyl)-1H-indazol-5-ylmethylene]-thiazol-4-one] came in with an EC50 of 11 nM.

`O=C1N=C(N[C@H]2CN3CCC2CC3)S/C1=C\c1ccc2c(cnn2Cc2ccc(Cl)cc2C(F)(F)F)c1` [Compound 28, 2-(1-Aza-bicyclo[2.2.2]oct-3(R)-ylamino)-5-[1-(4-chloro-2-trifluoromethyl-benzyl)-1H-indazol-5-ylmethylene]-thiazol-4-one] returned a concentration for a half-maximal effect (EC50) of 6 nM.

`O=C1N=C(N[C@@H]2CN3CCC2CC3)S/C1=C\c1ccc2c(cnn2Cc2ccc(C(F)(F)F)cc2C(F)(F)F)c1` [Compound 29, 2-(1-Aza-bicyclo[2.2.2]oct-3(S)-ylamino)-5-[1-(2,4-bis-trifluoromethyl-benzyl)-1H-indazol-5-ylmethylene]-thiazol-4-one] displayed a concentration for a half-maximal effect (EC50) of 39 nM.

`O=C1N=C(NCc2cncnc2)S/C1=C\c1ccc2c(cnn2Cc2ccc(C(F)(F)F)cc2C(F)(F)F)c1` [Compound 30, 5-[1-(2,4-Bis-trifluoromethyl-benzyl)-1H-indazol-5-ylmethylene]-2-[(pyrimidin-5-ylmethyl)-amino]-thiazol-4-one] gave an EC50 of 11 nM.

Compound `NS(=O)(=O)CCNC1=NC(=O)/C(=C/c2ccc3c(cnn3Cc3ccc(C(F)(F)F)cc3C(F)(F)F)c2)S1` [Compound 31, 2-{5-[1-(2,4-Bis-trifluoromethyl-benzyl)-1H-indazol-5-ylmethylene]-4-oxo-4,5-dihydro-thiazol-2-ylamino}-ethanesulfonic acid amide] showed a concentration giving a half-maximal response (EC50) of 37 nM.

Turning to `O=C1N=C(NCc2cncnc2)S/C1=C\c1ccc2c(cnn2Cc2ccc(Cl)cc2C(F)(F)F)c1` [Compound 32, 5-[1-(4-Chloro-2-trifluoromethyl-benzyl)-1H-indazol-5-ylmethylene]-2-[(pyrimidin-5-ylmethyl)-amino]-thiazol-4-one], a half-maximal effect (EC50) was put at 8.6 nM.

Regarding `O=C1N=C(NCCC2CCOCC2)S/C1=C\c1ccc2c(cnn2Cc2ccc(C(F)(F)F)cc2C(F)(F)F)c1` [Compound 33, 5-[1-(2,4-Bis-trifluoromethyl-benzyl)-1H-indazol-5-ylmethylene]-2-[2-(tetrahydro-pyran-4-yl)-ethylamino]-thiazol-4-one], a half-maximal response (EC50) required 260 nM.

The compound `O=C1N=C(NCCN2CCCC2=O)S/C1=C\c1ccc2c(cnn2Cc2ccc(C(F)(F)F)cc2C(F)(F)F)c1` [Compound 34, 5-[1-(2,4-Bis-trifluoromethyl-benzyl)-1H-indazol-5-ylmethylene]-2-[2-(2-oxo-pyrrolidin-1-yl)-ethylamino]-thiazol-4-one] gave an EC50 of 30.8 nM.

Compound `Cc1nnc(CNC2=NC(=O)/C(=C/c3ccc4c(cnn4Cc4ccc(Cl)cc4C(F)(F)F)c3)S2)[nH]1` [Compound 35, 5-[1-(4-Chloro-2-trifluoromethyl-benzyl)-1H-indazol-5-ylmethylene]-2-[(5-methyl-4H-[1,2,4]triazol-3-ylmethyl)-amino]-thiazol-4-one] gave an EC50 of 11.2 nM.

With `Cc1nnc(CNC2=NC(=O)/C(=C/c3ccc4c(cnn4Cc4ccc(C(F)(F)F)cc4C(F)(F)F)c3)S2)[nH]1` [Compound 36, 5-[1-(2,4-Bis-trifluoromethyl-benzyl)-1H-indazol-5-ylmethylene]-2-[(5-methyl-4H-[1,2,4]triazol-3-ylmethyl)-amino]-thiazol-4-one], the EC50 is 4.8 nM.

Compound `O=C(O)CCCNC1=NC(=O)/C(=C/c2ccc3c(cnn3Cc3ccc(Cl)cc3C(F)(F)F)c2)S1` [Compound 37, 4-{5-[1-(4-Chloro-2-trifluoromethyl-benzyl)-1H-indazol-5-ylmethylene]-4-oxo-4,5-dihydro-thiazol-2-ylamino}-butyric acid] returned an EC50 of 18 nM.

Turning to `O=C1N=C(NC(CO)CO)S/C1=C\c1ccc2c(cnn2Cc2ccc(Cl)cc2C(F)(F)F)c1` [Compound 38, 5-[1-(4-Chloro-2-trifluoromethyl-benzyl)-1H-indazol-5-ylmethylene]-2-(2-hydroxy-1-hydroxymethyl-ethylamino)-thiazol-4-one], the EC50 was 56.8 nM.

Regarding `CN1CCN(CCNC2=NC(=O)/C(=C/c3ccc4c(cnn4Cc4ccc(Cl)cc4C(F)(F)F)c3)S2)CC1` [Compound 39, 5-[1-(4-Chloro-2-trifluoromethyl-benzyl)-1H-indazol-5-ylmethylene]-2-[2-(4-methyl-piperazin-1-yl)-ethylamino]-thiazol-4-one], the EC50 stood at 6.6 nM.

`CNC(=O)CNC1=NC(=O)/C(=C/c2ccc3c(cnn3Cc3ccc(Cl)cc3C(F)(F)F)c2)S1` [Compound 41, 2-{5-[1-(4-Chloro-2-trifluoromethyl-benzyl)-1H-indazol-5-ylmethylene]-4-oxo-4,5-dihydro-thiazol-2-ylamino}-N-methyl-acetamide] yielded an EC50 of 7.7 nM.

Take `O=C1N=C(NCc2c[nH]nn2)S/C1=C\c1ccc2c(cnn2Cc2ccc(Cl)cc2C(F)(F)F)c1` [Compound 42, 5-[1-(4-Chloro-2-trifluoromethyl-benzyl)-1H-indazol-5-ylmethylene]-2-[(1H-[1,2,3]triazol-4-ylmethyl)-amino]-thiazol-4-one]: the EC50 worked out at 10 nM.

`O=C1N=C(NCc2c[nH]nn2)S/C1=C\c1ccc2c(cnn2Cc2ccc(C(F)(F)F)cc2C(F)(F)F)c1` [Compound 43, 5-[1-(2,4-Bis-trifluoromethyl-benzyl)-1H-indazol-5-ylmethylene]-2-[(1H-[1,2,3]triazol-4-ylmethyl)-amino]-thiazol-4-one] came in with an EC50 of 19 nM.

The compound `O=C1N=C(N[C@H]2CC[C@@H](C(=O)O)CC2)S/C1=C\c1ccc2c(cnn2Cc2ccc(Cl)cc2C(F)(F)F)c1` [Compound 44, (S,S)-4-{5-[1-(4-Chloro-2-trifluoromethyl-benzyl)-1H-indazol-5-ylmethylene]-4-oxo-4,5-dihydro-thiazol-2-ylamino}-cyclohexanecarboxylic acid] showed a concentration for a half-maximal effect (EC50) of 15 nM.

Compound `O=C1N=C(NC2(C(=O)O)CC2)S/C1=C\c1ccc2c(cnn2Cc2ccc(Cl)cc2C(F)(F)F)c1` [Compound 45, 1-{5-[1-(4-Chloro-2-trifluoromethyl-benzyl)-1H-indazol-5-ylmethylene]-4-oxo-4,5-dihydro-thiazol-2-ylamino}-cyclopropanecarboxylic acid] returned an EC50 of 9.7 nM.

Take `O=C(O)CC(O)CNC1=NC(=O)/C(=C/c2ccc3c(cnn3Cc3ccc(Cl)cc3C(F)(F)F)c2)S1` (stereo not drawn) [Compound 46, 4-{5-[1-(4-Chloro-2-trifluoromethyl-benzyl)-1H-indazol-5-ylmethylene]-4-oxo-4,5-dihydro-thiazol-2-ylamino}-3-hydroxy-butyric acid]: the EC50 came to 22 nM.

With `O=C1N=C(N[C@@H]2CNC[C@H]2O)S/C1=C\c1ccc2c(cnn2Cc2ccc(Cl)cc2C(F)(F)F)c1` [Compound 47, (5Z)-5-({1-[4-Chloro-2-(trifluoromethyl)benzyl]-1H-indazol-5-yl}methylidene)-2-{[(3R,4R)-4-hydroxypyrrolidin-3-yl]amino}-1,3-thiazol-4(5H)-one], the half-maximal effective concentration (EC50) is 37 nM.

Compound `CN1CCN(CCNC2=NC(=O)/C(=C/c3ccc4c(c3)c(I)nn4Cc3ccc(C(F)(F)F)cc3C(F)(F)F)S2)CC1` [Compound 48, 5-({1-[2,4-Bis(trifluoromethyl)benzyl]-3-iodo-1H-indazol-5-yl}methylidene)-2-{[2-(4-methylpiperazin-1-yl)ethyl]amino}-1,3-thiazol-4(5H)-one] displayed an EC50 of 5 nM.
